According to patent publication US20020107197A1, “Ligands for G protein coupled receptors and methods of using them” (priority 2000, published 2002):
Bridges are numbered along the chain shown (N, C = ends). Where no end group is shown, it is not given here.

Legend:
GPR4 [1] = molecular target: T1, GPR4 (Homo sapiens, UniProt P46093); experiment: Cell migration in modified Boyden chamber, GPR4-ires-GFP vs GFP Swiss 3T3 cells; format: cell-based; settings: for chemokinetic assay: cell motility vs controls: lipid 100 nM in both upper and lower chambers, GFP or GFP-GPR4 Swiss 3T3 cells
T1 construct: were used to generate full length GPR4, which was digested with EcoRI and Xba I and cloned into the pBs3HA vector; expressed in transfected cells
T1 sequence (P46093 whole entry): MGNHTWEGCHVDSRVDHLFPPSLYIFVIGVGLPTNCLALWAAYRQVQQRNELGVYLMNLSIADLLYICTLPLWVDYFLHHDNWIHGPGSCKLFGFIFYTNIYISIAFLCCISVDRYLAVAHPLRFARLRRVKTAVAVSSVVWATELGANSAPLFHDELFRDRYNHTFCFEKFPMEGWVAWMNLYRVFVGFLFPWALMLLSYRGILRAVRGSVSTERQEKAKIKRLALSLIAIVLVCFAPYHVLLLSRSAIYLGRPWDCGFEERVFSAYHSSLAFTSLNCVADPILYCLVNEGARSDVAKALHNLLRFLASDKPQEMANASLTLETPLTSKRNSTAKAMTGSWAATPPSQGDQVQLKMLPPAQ
Protocol: Chemotaxis was measured in a modified Boyden chamber assay. Briefly, different lipids were added to the lower chambers. GPR4-ires-GFP- and GFP-Swiss 3T3 cells were serum starved for 4 h, trypsinized, and seeded in the upper chambers of Boyden-transwell plates (Corning Inc., Corning, N.Y.). The chambers were incubated for 6 to 8 h. The number of cells that migrated to the lower face of the membrane was counted in 4 random fields. Data are represented as the average ±SD of three independent experiments. For the chemokinetic assay, the same concentrations of lipids were added to both the upper and lower chambers. For Rho inhibition studies, C3-exoenxyme was transiently transfected into Swiss 3T3 cells and cell migration assays were performed 48 hours later.

[2] = system: vector-transfected HEK293 cells; experiment: SRE luciferase reporter in vector-transfected HEK293 cells; format: cell-based, human
Protocol: (§1) The serum-response element (SRE) reporter system is a sensitive assay for receptors of lipid factors (An et al. (1998) J Biol Chem 273, 7906-7910; An et al. (1999) Mol Pharmacol 55, 787-794). The SRE reporter system used herein (pSRE-Luc) was a gift from Dr. Songzhu An (UCSF), or may be purchased from Stratagene (La Jolla, Calif.). Both systems give identical results. HEK293 and HEK293GPR4 cells were cultured in RPMI1640 with 10% FBS in 10 cm dishes to ˜85% confluence. To the cells in each dish, pSRE-Luc (10 μg) was transfected in the presence of 60 μl LipofectAMINE reagent. Cells were seeded in 96-well plates 16 h after transfection, incubated for another 24 h in RPMI1640 with 10% FBS, and starved in serum-free medium for 16 h. SPC (dissolved in PBS to 10 mM) and other lipids (LPCs were dissolved in 70% ethanol. Other lipids were dissolved in PBS, 70-95% ethanol, or 100% MeOH) were diluted in serum free RPMI 1640 and added to the cells, followed by a 10 h incubation. Luciferase activity was measured in Microlite™ 1 plates (DYNEX Technologies, Inc., Virginia) using 60 μl of cell lysate and 20 μl luciferase substrate. PTX (100 ng/ml) was added during the 16 h serum starvation period and pcDNA1-C3 (encoding the C3-exoenzyme, 2 μg) was co-transfected with pSRE-Luc (10 μg). All experiments were performed in quadruplicate and were repeated at least three times. The Student's t test was performed using the GraphPad Instat software (San Diego, Calif.). p<0.05 was considered to be statistically significant.

GPR4 [3] = molecular target: T1, GPR4; experiment: ERK MAP kinase activation (phospho-ERK Western blot) in GPR4-infected Swiss 3T3 cells; format: cell-based; settings: GPR4-ires-GFP vs GFP Swiss 3T3 cells; SPC and LPC 100 nM
Protocol: MAP kinases are key signaling intermediates of DNA synthesis and cell proliferation. Swiss 3T3 cells were infected with MSCV GPR4-ires-GFP or MSCV ires-GFP, and subsequently cells sorted by FACS for positive expression of GFP as described previously (Kabarowski et al. (2000) Proc Natl Acad Sci USA. 97, 12109-12114). Cells were plated in 6-well plates in DMEM containing 5% FBS, serum-starved overnight, and then treated lipids in DMEM for the indicated times. Cells were lysed on ice in RIPA buffer containing 50 mM Tris-HCl, pH 7.5, 1% Nonidet P-40, 0.5% deoxycholate,0.1% SDS, 150 mM NaCl, 2 mM EGTA, 25 mM sodium fluoride, 1 mM sodium orthovanadate, and 1× protease inhibitors (Sigma P8340). Lysates containing equal amounts of protein were separated on 10% SDS-polyacrylamide gels and transferred onto nitrocellulose membranes. Antibodies against phosphorylated ERK1/2 (Cell Signaling Technologies; Beverly, Mass.) were used to probe the membrane and the ECL system (Amersham) was used for detection. To normalize the amounts of protein loaded in each lane, membranes were stripped and re-probed with antibodies against total ERK (Cell Signaling Technologies). In some experiments, cells were pretreated with 100 ng/ml PTX for 12-16 h prior to SPC and LPC stimulation.

GPR4 [4] = molecular target: T1, GPR4; experiment: Radioligand binding to homogenates of GPR4-transfected CHO cells; settings: cold competitors, GPR4-transfected CHO cell homogenates
Protocol: (§2) To characterize the binding of SPC and LPC to GPR4 and TDAG8, we conducted radioligand binding assays. CHO cells were chosen for GPR4 binding assays, since HEK293 cells express relatively high levels of endogenous GPR4. CHO cells stably transfected with empty vector or GPR4 were serum starved for 20 h, then collected after exposure to 2 mM EDTA in PBS. The pelleted cells were stored at −80° C. until use. Binding assays were performed essentially as described previously (Xu et al. (2000) Nat Cell Biol 2, 261-267), except binding was performed at 4° C. Briefly, frozen cells (10^6 cells/ml) were homogenized in a binding buffer. Assays were performed in 96-well plates in triplicate with 100 μl cell homogenate (equivalent to 10^5 cells/well). Different amounts of [^3H]SPC or [^3H]16:0-LPC were added to the cell homogenates in 50 μl of binding buffer, in the presence or absence of cold SPC or 16:0-LPC, or other competitors. The plates were incubated at 4° C. for 120 min, unless otherwise indicated. Cell-bound [^3H]SPC or [^3H]LPC was collected onto a filter (Printed Filtermat A, Wallac, Gaithersburg, Md.) using an automated cell harvester (HARVESTER 96, Tomtec, Orange, Conn.). Specific binding was calculated by subtraction of nonspecific binding (binding detected in the presence of 100-fold excess unlabeled SPC or 16:0-LPC) from the total binding.
Cell homogenates were used for binding assays. Binding was conducted at 4° C. for 120 min or as indicated. [^3H]SPC and [^3H]16:0-LPC specifically bound to cell homogenates from GPR4-transfected CHO cells in a time-dependent manner and reached equilibrium after 60 min incubation at 4° C. […] The maximum binding capacities for SPC and 16:0-LPC were 996 fmole/10^5 cells for SPC and 1,528 fmole/10^5 cells for 16:0-LPC. […] Binding assays using [^3H]18:0-LPC gave similar results. We also tested the four glycosphingolipids, Psy, Glu-Sph, Gal-Cer, and Lac-Cer, for their ability to compete for the binding of [^3H]SPC and [^3H]16:0-LPC to GPR4.

GPR4 [5] = molecular target: T1, GPR4; experiment: SRE luciferase reporter in GPR4-transfected HEK293 cells; format: cell-based; settings: GPR4 cotransfection
Protocol: as §1

TDAG8 [6] = molecular target: T2, TDAG8 (Homo sapiens, UniProt Q8IYL9); experiment: SRE luciferase reporter in TDAG8-transfected HEK293 cells; format: cell-based; settings: TDAG8 cotransfection
T2 construct: expressed in transfected cells
T2 sequence (Q8IYL9 whole entry): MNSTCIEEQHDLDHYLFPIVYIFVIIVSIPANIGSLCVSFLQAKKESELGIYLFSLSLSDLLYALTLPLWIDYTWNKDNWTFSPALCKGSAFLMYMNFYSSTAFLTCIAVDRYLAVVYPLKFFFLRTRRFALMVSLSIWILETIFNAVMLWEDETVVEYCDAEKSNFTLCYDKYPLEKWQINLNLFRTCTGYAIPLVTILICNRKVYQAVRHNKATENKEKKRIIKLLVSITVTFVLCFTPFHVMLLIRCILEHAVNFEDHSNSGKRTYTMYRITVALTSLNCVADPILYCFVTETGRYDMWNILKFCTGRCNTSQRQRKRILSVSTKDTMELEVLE

HEY ovarian cancer cells = experiment: DNA synthesis / growth of HEY ovarian cancer cells with SPC and phage preparations; format: cell-based, human; settings: phage mixed with SPC, 30 min incubation
Protocol: To determine if these selected phage clones were capable of blocking a biological effect of SPC, we mixed phage preparations with SPC. After a 30 min incubation, this mixture was added to HEY cells and its effect on SPC-induced cell proliferation was tested. If a phage clone was carrying a specific sequence which binds to SPC, the addition of the phage to SPC could block the effect of SPC on HEY cells.

TDAG8 [7] = molecular target: T2, TDAG8; experiment: Binding of phospholipids to TDAG8
Protocol: as §2
Using functional and binding assays, we have identified the ligands for TDAG8.

TDAG8 [8] = molecular target: T2, TDAG8; experiment: TDAG8 receptor internalization; format: cell-based
Text: G protein coupled receptors undergo agonist-dependent desensitization and internalization.

GPR4 [9] = molecular target: T1, GPR4; experiment: Internalization of GPR4-GFP in HEK293 cells (confocal microscopy); format: cell-based; settings: 1 μM lipid, 37° C., GPR4-GFP HEK293 cells
Protocol: pGPR4-GFP stably expressing HEK293 cells were cultured in 6 cm tissue culture dishes in RPMI1640 with 10% FBS. After 16-24 h serum starvation, cells were treated with different lipids at 37° C. for 2 h. Cells were washed with cold PBS and fixed with 4% paraformaldehyde in PBS. The subcellular localization of GPR4-GFP protein was visualized under a Leica TV confocal fluorescence microscope with a 63× oil immersion lens (Wetzler, Heidelberg, Germany). The excitation and emission wavelengths were 488 nm and 515-540 nm, respectively.
G protein coupled receptors undergo agonist-dependent desensitization and internalization. When HEK293 cells are transfected with the pEGFP-N1 vector, GFP protein is expressed in the cytosol of the cells. The GPR4-GFP and TDAG8-GFP fusion proteins, on the other hand, was expressed only on the plasma membrane.

| cell migration in GPR4- vs. vector-transfected cells (in words) (GPR4 [1]) | chemokinetic assay: cell motility vs controls (GPR4 [1]) | competition for binding of [3H]SPC and [3H]16:0-LPC to GPR4 (GPR4 [4]) | transcriptional activation of SRE (in words) (GPR4 [5]) | transcriptional activation of SRE (in words) (TDAG8 [6]) | Compound | transcriptional activation of SRE (in words) [2] | GPR4-dependent ERK activation (in words) (GPR4 [3]) | effect of phage on the growth inhibitory effect of SPC (HEY ovarian cancer cells) | effect of phage on the growth inhibitory effect of SPC (HEY ovarian cancer cells; listed as clone 414) | effect of phage on the growth inhibitory effect of SPC (HEY ovarian cancer cells; listed as phage 414) | binding to TDAG8 (TDAG8 [7]) | TDAG8 receptor internalization (TDAG8 [8]) | internalization of GPR4 (GPR4 [9]) |
| --- | --- | --- | --- | --- | --- | --- | --- | --- | --- | --- | --- | --- | --- |
| did not alter cell migration | slightly inhibited | not | not altered | not altered | CCCCCCCCCCCCC/C=C/[C@@H](O)[C@@H](N)COP(=O)(O)O [S1P, sphingosine-1-phosphate] | induced significant transcriptional activation of SRE | activation was independent of GPR4 expression | – | – | – | – | – | – |
| – | – | – | – | – | Cys-His-Thr-Gln-Ala-Asp-Ser-Cys (CHTQADSC; disulfide 1-8) [#414] | – | – | able to inhibit the growth inhibitory effect of SPC on HEY cells | inverted the growth inhibitory effect of SPC | blocked the growth inhibitory effect of SPC on DNA synthesis | – | – | – |
| did not alter cell migration | did not show a significant effect | not | not altered | not altered | lysophosphatidic acid [LPA] | induced significant transcriptional activation of SRE | – | – | – | – | – | – | – |

| Compound | cell migration in GPR4- vs. vector-transfected cells (in words) (GPR4 [1]) | chemokinetic assay: cell motility vs controls (GPR4 [1]) | competition for binding of [3H]SPC and [3H]16:0-LPC to GPR4 (GPR4 [4]) | transcriptional activation of SRE (in words) (GPR4 [5]) | transcriptional activation of SRE (in words) (TDAG8 [6]) | transcriptional activation of SRE (in words) [2] | GPR4-dependent ERK activation (in words) (GPR4 [3]) | effect of phage on the growth inhibitory effect of SPC (HEY ovarian cancer cells) | effect of phage on the growth inhibitory effect of SPC (HEY ovarian cancer cells; listed as clone 414) | effect of phage on the growth inhibitory effect of SPC (HEY ovarian cancer cells; listed as phage 414) | binding to TDAG8 (TDAG8 [7]) | TDAG8 receptor internalization (TDAG8 [8]) | internalization of GPR4 (GPR4 [9]) |
| --- | --- | --- | --- | --- | --- | --- | --- | --- | --- | --- | --- | --- | --- |
| platelet activating factor [PAF] | did not alter cell migration | slightly enhanced | not | none of them induced significant transcriptional activation of SRE | – | – | activation was independent of GPR4 expression | – | – | – | able to bind to TDAG8 | induced TDAG8 receptor internalization | not |
